Source: US20060069132A1, “Azolecarboxamide herbicides” (priority 2004, published 2006)

Key:
[1] = test system: wild oat; experiment: Test B postemergence herbicide test; assay type: in vivo, Avena fatua; settings: scale 0 (no effect) to 100 (complete control); for Oat, Wild plant response rating: postemergence, visual rating
Summary of the method: (§1)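 Greenhouse test; postemergence application to plants at 1–4 leaves (2–18 cm); paddy species at 2 leaves; evaluated visually vs controls at 13–15 days; scale 0–100 (100 = complete control).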

[2] = test system: corn; experiment: Test B pre-/postemergence herbicide test; assay type: in vivo, Zea mays; settings: for Corn plant response rating: postemergence, visual rating, scale 0 (no effect) to 100 (complete control)
Summary of the method: (§2)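 Seeds were planted and treated preemergence with compounds formulated in a non-phytotoxic solvent mixture containing surfactant, while plants at the 1- to 4-leaf stage (2 to 18 cm) received postemergence sprays. Flooded paddy plants were grown to the 2-leaf stage. After 13 to 15 days in a greenhouse, injury was visually rated 0–100 against untreated controls.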

[3] = test system: small flower umbrella sedge; experiment: Test B flooded paddy test; assay type: in vivo, Cyperus difformis; settings: 1000 g ai/ha, visual rating, scale 0 to 100 (0 no effect, 100 complete control), 13 to 15 days
Summary of the method: (§3)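 Read-out: visual comparison with controls, scored 0 to 100, where 100 means complete control and 0 no effect. Formulated chemicals were applied postemergence to plants 2–18 cm tall (1- to 4-leaf), or to flooded-paddy plants at the 2-leaf stage, then held 13 to 15 days under glass.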

[4] = test system: large crabgrass; experiment: Test B pre-/postemergence herbicide test; assay type: in vivo, Digitaria sanguinalis; settings: for Crabgrass, Large plant response rating: postemergence, visual rating
Summary of the method: as §2

[5] = test system: cocklebur; experiment: Test B pre-/postemergence herbicide test; assay type: in vivo, Xanthium strumarium; settings: for Cocklebur plant response rating: postemergence, visual rating
Summary of the method: (§4)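 Pre: seeds sown, then sprayed. Post: 1–4-leaf plants (2–18 cm) sprayed at the same time. Paddy: flooded, treated at 2-leaf stage. Formulation: non-phytotoxic solvent with surfactant. Greenhouse 13–15 days; visual 0–100 score relative to controls.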

[6] = test system: Surinam grass; experiment: Test B pre-/postemergence herbicide test; assay type: in vivo, Urochloa decumbens; settings: for Surinam Grass plant response rating: postemergence, visual rating
Summary of the method: as §2

[7] = test system: rice; experiment: Test B flooded paddy test; assay type: in vivo, Oryza sativa; settings: 1000 g ai/ha, visual rating, scale 0 to 100 (0 no effect, 100 complete control), 13 to 15 days
Summary of the method: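 Visual ratings, 0 (no effect) to 100 (complete control), made versus controls after 13–15 d greenhouse. Paddy plants treated at 2-leaf stage; postemergence plants at 1- to 4-leaf stage, 2–18 cm tall.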

[8] = test system: pigweed; experiment: Test B pre-/postemergence herbicide test; assay type: in vivo, Amaranthus retroflexus; settings: for Pigweed plant response rating: postemergence, visual rating
Summary of the method: as §2

[9] = test system: barnyardgrass; experiment: Test B pre-/postemergence herbicide test; assay type: in vivo, Echinochloa crus-galli; settings: for Barnyardgrass plant response rating: postemergence, visual rating
Summary of the method: as §4

[10] = test system: barnyardgrass; experiment: Test B flooded paddy test; assay type: in vivo, Echinochloa crus-galli; settings: 1000 g ai/ha, visual rating, scale 0 to 100 (0 no effect, 100 complete control), 13 to 15 days
Summary of the method: as §3

[11] = test system: giant foxtail; experiment: Test B pre-/postemergence herbicide test; assay type: in vivo, Setaria faberi; settings: for Foxtail, Giant plant response rating: postemergence, visual rating
Summary of the method: as §2

[12] = test system: blackgrass; experiment: Test B postemergence herbicide test; assay type: in vivo, Alopecurus myosuroides; settings: scale 0 (no effect) to 100 (complete control); for Blackgrass plant response rating: postemergence, visual rating
Summary of the method: as §3

[13] = test system: morningglory; experiment: Test B pre-/postemergence herbicide test; assay type: in vivo, Ipomoea coccinea; settings: for Morningglory plant response rating: postemergence, visual rating, scale 0 (no effect) to 100 (complete control)
Summary of the method: as §4

[14] = test system: wheat; experiment: Test B postemergence herbicide test; assay type: in vivo, Triticum aestivum; parameters: key to Wheat plant response rating: 0 = no effect, 100 = complete control; settings: scale 0 (no effect) to 100 (complete control); for Wheat plant response rating: postemergence, visual rating
Summary of the method: as §1

[15] = test system: lambsquarters; experiment: Test B pre-/postemergence herbicide test; assay type: in vivo, Chenopodium album; settings: for Lambsquarters plant response rating: postemergence, visual rating
Summary of the method: as §2

[16] = test system: ducksalad; experiment: Test B flooded paddy test; assay type: in vivo, Heteranthera limosa; settings: 1000 g ai/ha, visual rating, scale 0 to 100 (0 no effect, 100 complete control), 13 to 15 days
Summary of the method: as §3

[17] = 125 g ai/ha, 0 = no effect, 100 = complete control, preemergence
[18] = 500 g ai/ha, visual rating 0-100, 0 no effect, 100 complete control, preemergence
[19] = 125 g ai/ha, scale 0 (no effect) to 100 (complete control)
[20] = 500 g ai/ha, scale 0 (no effect) to 100 (complete control)
[21] = Postemergence, 500 g ai/ha, visual rating after 13 to 15 days
[22] = preemergence, 125 g ai/ha, 0 to 100 scale, 0 is no effect, 100 is complete control
[23] = Postemergence, 500 g ai/ha, visual rating after 13 to 15 days, scale 0 (no effect) to 100 (complete control)

SMILES: CCNC(=O)c1cccc(NC(=O)c2sc(C(C)(C)C)nc2CC)c1 [Compound 210]
- Oat, Wild plant response rating ([1]; 125 g ai/ha): 20
- Oat, Wild plant response rating ([1]; 500 g ai/ha): 20
- Corn plant response rating (0 to 100 scale) [2, 17]: 20
- Plant response rating, Corn [2, 18]: 70
- Corn plant response rating ([2]; 125 g ai/ha): 20
- Corn plant response rating ([2]; 500 g ai/ha): 60
- Sedge, Umbrella plant response rating [3]: 80
- Crabgrass, Large plant response rating (0 to 100 scale) [4, 17]: 90
- Plant response rating, Crabgrass, Large [4, 18]: 90
- Crabgrass, Large plant response rating [4, 19]: 20
- Crabgrass, Large plant response rating [4, 20]: 20
- Cocklebur plant response rating (0 to 100 scale) [5, 17]: 10
- Plant response rating, Cocklebur [5, 18]: 40
- Cocklebur plant response rating [5, 19]: 60
- Cocklebur plant response rating [5, 20]: 90
- Surinam Grass plant response rating (0 to 100 scale) [6, 17]: 60
- Plant response rating, Surinam Grass [6, 18]: 70
- Surinam Grass plant response rating [6, 19]: 20
- Surinam Grass plant response rating [6, 20]: 30
- Rice plant response rating [7]: 70
- Pigweed plant response rating (0 to 100 scale) [8, 17]: 100
- Plant response rating, Pigweed [8, 18]: 100
- Pigweed plant response rating [8, 19]: 40
- Pigweed plant response rating [8, 20]: 70
- Barnyardgrass plant response rating (0 to 100 scale) [9, 17]: 70
- Plant response rating, Barnyardgrass [9, 18]: 90
- Barnyardgrass plant response rating [9, 19]: 20
- Barnyardgrass plant response rating [9, 20]: 40
- Barnyardgrass plant response rating [10]: 80
- Foxtail, Giant plant response rating (0 to 100 scale) [11, 17]: 80
- Plant response rating, Foxtail, Giant [11, 18]: 100
- Foxtail, Giant plant response rating [11, 19]: 20
- Foxtail, Giant plant response rating [11, 20]: 30
- Blackgrass plant response rating ([12]; 125 g ai/ha): 10
- Blackgrass plant response rating ([12]; 500 g ai/ha): 30
- Morningglory plant response rating (0 to 100 scale) [13, 17]: 20
- Plant response rating, Morningglory [13, 18]: 30
- Morningglory plant response rating ([13]; 125 g ai/ha): 30
- Morningglory plant response rating ([13]; 500 g ai/ha): 70
- Wheat plant response rating ([14]; 125 g ai/ha): 20
- Wheat plant response rating ([14]; 500 g ai/ha): 20
- Lambsquarters plant response rating (0 to 100 scale) [15, 17]: 100
- Plant response rating, Lambsquarters [15, 18]: 100
- Lambsquarters plant response rating [15, 19]: 70
- Lambsquarters plant response rating [15, 20]: 80
- Ducksalad plant response rating [16]: 80

SMILES: CC(=NO)c1cccc(NC(=O)c2cc(C(C)(C)C)nn2CCF)c1 [Compound 115]
- Plant response rating, Oat, Wild [1, 21]: 30
- Oat, Wild plant response rating ([1]; 125 g ai/ha): 10
- Plant response rating, Corn [2, 18]: 30
- Plant response rating, Corn [2, 22]: 0
- Sedge, Umbrella plant response rating [3]: 90
- Plant response rating, Crabgrass, Large [4, 18]: 100
- Plant response rating, Crabgrass, Large [4, 23]: 30
- Crabgrass, Large plant response rating [4, 19]: 10
- Plant response rating, Crabgrass, Large [4, 22]: 90
- Plant response rating, Cocklebur [5, 18]: 40
- Plant response rating, Cocklebur [5, 23]: 90
- Cocklebur plant response rating [5, 19]: 80
- Plant response rating, Cocklebur [5, 22]: 20
- Plant response rating, Surinam Grass [6, 18]: 70
- Plant response rating, Surinam Grass [6, 23]: 60
- Surinam Grass plant response rating [6, 19]: 60
- Plant response rating, Surinam Grass [6, 22]: 70
- Rice plant response rating [7]: 60
- Plant response rating, Pigweed [8, 18]: 100
- Plant response rating, Pigweed [8, 23]: 100
- Pigweed plant response rating [8, 19]: 80
- Plant response rating, Pigweed [8, 22]: 80
- Plant response rating, Barnyardgrass [9, 18]: 100
- Plant response rating, Barnyardgrass [9, 23]: 50
- Barnyardgrass plant response rating [9, 19]: 10
- Plant response rating, Barnyardgrass [9, 22]: 80
- Barnyardgrass plant response rating [10]: 90
- Plant response rating, Foxtail, Giant [11, 18]: 100
- Plant response rating, Foxtail, Giant [11, 23]: 30
- Foxtail, Giant plant response rating [11, 19]: 20
- Plant response rating, Foxtail, Giant [11, 22]: 80
- Plant response rating, Blackgrass [12, 21]: 20
- Blackgrass plant response rating ([12]; 125 g ai/ha): 10
- Plant response rating, Morningglory [13, 18]: 90
- Plant response rating, Morningglory [13, 22]: 30
- Plant response rating, Wheat [14, 21]: 30
- Wheat plant response rating ([14]; 125 g ai/ha): 30
- Plant response rating, Lambsquarters [15, 18]: 100
- Plant response rating, Lambsquarters [15, 23]: 100
- Lambsquarters plant response rating [15, 19]: 80
- Plant response rating, Lambsquarters [15, 22]: 100
- Ducksalad plant response rating [16]: 90
